Data published in ChEMBL document CHEMBL1255340, “In vitro activities of the Rx-01 oxazolidinones against hospital and community pathogens” (2008).
In brackets after ≈: the same amount, converted by molar mass. Several values for one entry are separate records, joined by “and”; a condition that tells them apart may be missing. Equal values may be shown once.

Legend:
Assay type in all cases: functional
Enterococcus faecium [1] = experiment: Antimicrobial activity against Enterococcus faecium A9650
Enterococcus faecium [2] = experiment: Antimicrobial activity against Enterococcus faecium A8948
Enterococcus faecium [3] = experiment: Antimicrobial activity against Enterococcus faecium A9621 by broth microdilution method
Enterococcus faecium [4] = experiment: Antimicrobial activity against Enterococcus faecium A8767
Streptococcus pneumoniae [5] = experiment: Antimicrobial activity against Streptococcus pneumoniae PU1071099 harboring 65WR66 deletion in ribosomal protein L4 by broth microdilution method
Staphylococcus aureus [6] = experiment: Antimicrobial activity against methicillin resistant Staphylococcus aureus 67-0
Staphylococcus aureus [7] = experiment: Antimicrobial activity against methicillin-resistant Staphylococcus aureus BK 11118
Staphylococcus aureus [8] = experiment: Antimicrobial activity against methicillin-resistant Staphylococcus aureus BK 11512
Enterococcus faecalis [9] = experiment: Antimicrobial activity against vancomycin-resistant Enterococcus faecalis 03B1069
Streptococcus pneumoniae [10] = experiment: Antimicrobial activity against Streptococcus pneumoniae 02J1258
Streptococcus pneumoniae [11] = experiment: Antimicrobial activity against Streptococcus pneumoniae 02J1175
Haemophilus influenzae [12] = experiment: Antimicrobial activity against Haemophilus influenzae 54A1100
Haemophilus influenzae [13] = experiment: Antimicrobial activity against Haemophilus influenzae A1950
Staphylococcus aureus [14] = experiment: Antimicrobial activity against Staphylococcus aureus A7820
Enterococcus faecium [15] = experiment: Antimicrobial activity against Enterococcus faecium A6349
Streptococcus pneumoniae [16] = experiment: Antimicrobial activity against Streptococcus pneumoniae 02J1258 assessed as log reduction in bacterial growth at 4 times MIC after 24 hrs by time-kill assay
Streptococcus pneumoniae [17] = experiment: Antimicrobial activity against Streptococcus pneumoniae 02J1175 assessed as log reduction in bacterial growth at 4 times MIC after 24 hrs by time-kill assay
Haemophilus influenzae [18] = experiment: Antimicrobial activity against Haemophilus influenzae 54A1100 assessed as log reduction in bacterial growth at 4 times MIC after 24 hrs by time-kill assay
Haemophilus influenzae [19] = experiment: Antimicrobial activity against Haemophilus influenzae 54A1100 assessed as log reduction in bacterial growth at 8 times MIC after 24 hrs by time-kill assay
Streptococcus pneumoniae [20] = experiment: Antimicrobial activity against Streptococcus pneumoniae 02J1258 assessed as log reduction in bacterial growth at 8 times MIC after 24 hrs by time-kill assay
Streptococcus pneumoniae [21] = experiment: Antimicrobial activity against Streptococcus pneumoniae 02J1175 assessed as log reduction in bacterial growth at 8 times MIC after 24 hrs by time-kill assay
Haemophilus influenzae [22] = experiment: Antimicrobial activity against Haemophilus influenzae A1950 assessed as log reduction in bacterial growth at 4 times MIC after 24 hrs by time-kill assay
Haemophilus influenzae [23] = experiment: Antimicrobial activity against Haemophilus influenzae A1950 assessed as log reduction in bacterial growth at 8 times MIC after 24 hrs by time-kill assay
Staphylococcus aureus [24] = experiment: Antimicrobial activity against methicillin-susceptible Staphylococcus aureus nosocomial isolate
Enterococcus faecalis [25] = experiment: Antimicrobial activity against vancomycin-resistant Enterococcus faecalis nosocomial isolate
Streptococcus pneumoniae [26] = experiment: Antimicrobial activity against Streptococcus pneumoniae harboring erm(B) gene by broth microdilution method; conditions: Streptococcus pneumoniae; read-out: MIC
Streptococcus pneumoniae [27] = experiment: Antimicrobial activity against Streptococcus pneumoniae harboring erm(B) and mef(A) gene
Streptococcus pneumoniae [28] = experiment: Antimicrobial activity against Streptococcus pneumoniae ribosomal mutant
Streptococcus pyogenes [29] = experiment: Antimicrobial activity against Streptococcus pyogenes
Moraxella catarrhalis = experiment: Antimicrobial activity against Moraxella catarrhalis
Staphylococcus aureus [30] = experiment: Antimicrobial activity against Staphylococcus aureus ATCC 29213
Staphylococcus aureus [31] = experiment: Antimicrobial activity against Staphylococcus aureus A7819 harboring G2576U mutation in 23S rRNA
Staphylococcus aureus [32] = experiment: Antimicrobial activity against Staphylococcus aureus A8833 harboring U2500A mutation in 23S rRNA
Staphylococcus aureus [33] = experiment: Antimicrobial activity against Staphylococcus aureus A8831 harboring U2500A mutation in 23S rRNA
Staphylococcus aureus [34] = experiment: Antimicrobial activity against Staphylococcus aureus A7817
Staphylococcus aureus [35] = experiment: Antimicrobial activity against Staphylococcus aureus A8761
Staphylococcus aureus [36] = experiment: Antimicrobial activity against Staphylococcus aureus A8727
Staphylococcus hominis = experiment: Antimicrobial activity against Staphylococcus hominis A7828
[37] = system: Staphylococcus epidermidis; experiment: Antimicrobial activity against Staphylococcus epidermidis A8934
Staphylococcus capitis = experiment: Antimicrobial activity against Staphylococcus capitis A8935
Staphylococcus aureus [38] = experiment: Antimicrobial activity against Staphylococcus aureus pL150
Staphylococcus aureus [39] = experiment: Antimicrobial activity against Staphylococcus aureus pLXM1 harboring cfr gene
Enterococcus faecalis [40] = experiment: Antimicrobial activity against Enterococcus faecalis ATCC 29212
Enterococcus faecalis [41] = experiment: Antimicrobial activity against Enterococcus faecalis ATCC 29212-P5 harboring G2576U mutation in 23S rRNA
Enterococcus faecalis [42] = experiment: Antimicrobial activity against Enterococcus faecalis A6350
Enterococcus faecalis [43] = experiment: Antimicrobial activity against Enterococcus faecalis A6343
Enterococcus faecalis [44] = experiment: Antimicrobial activity against Enterococcus faecalis A5962
Enterococcus faecalis [45] = experiment: Antimicrobial activity against Enterococcus faecalis A7789
Enterococcus faecium [46] = experiment: Antimicrobial activity against Enterococcus faecium A5959
Enterococcus faecium [47] = experiment: Antimicrobial activity against Enterococcus faecium A5960
Enterococcus faecium [48] = experiment: Antimicrobial activity against Enterococcus faecium A6345
Enterococcus faecium [49] = experiment: Antimicrobial activity against Enterococcus faecium A6348 harboring G2576U mutation in 23S rRNA
Enterococcus faecium [50] = experiment: Antimicrobial activity against Enterococcus faecium A6349 harboring G2576U mutation in 23S rRNA
Enterococcus faecium [51] = experiment: Antimicrobial activity against Enterococcus faecium A8130
Enterococcus faecium [52] = experiment: Antimicrobial activity against vancomycin-susceptible Enterococcus faecium nosocomial isolate by broth microdilution method
Enterococcus faecium [53] = experiment: Antimicrobial activity against vancomycin-resistant Enterococcus faecium nosocomial isolate
Streptococcus pyogenes [54] = experiment: Antimicrobial activity against Streptococcus pyogenes harboring mef(A) gene
Legionella pneumophila = experiment: Antimicrobial activity against Legionella pneumophila isolated from human respiratory tract by broth microdilution method
Chlamydia trachomatis = experiment: Antimicrobial activity against Chlamydia trachomatis isolated from human respiratory tract by broth microdilution method
Chlamydia pneumoniae = experiment: Antimicrobial activity against Chlamydophila pneumoniae isolated from human respiratory tract by broth microdilution method
[55] = Streptococcus pyogenes, read-out: MIC
[56] = Enterococcus faecium, read-out: MIC

CC(=O)NC[C@H]1CN(c2ccc(-c3ccc(CNCCCF)cc3)c(F)c2)C(=O)O1
MIC (Enterococcus faecium [1]): 1 µg/mL (≈ 2.4 µM) | MIC (Enterococcus faecium [2]): 0.5 µg/mL (≈ 1.2 µM) | MIC (Enterococcus faecium [3]): 4 µg/mL (≈ 9.58 µM) | MIC (Enterococcus faecium [4]): 2 µg/mL (≈ 4.79 µM) | MIC (Streptococcus pneumoniae [5]): 0.5 µg/mL (≈ 1.2 µM) | MIC (Staphylococcus aureus [6]): 1 µg/mL (≈ 2.4 µM) | MIC (Staphylococcus aureus [7]): 1 µg/mL (≈ 2.4 µM) | MIC (Staphylococcus aureus [8]): 2 µg/mL (≈ 4.79 µM) | MIC (Enterococcus faecalis [9]): 0.5 µg/mL (≈ 1.2 µM) | MIC (Streptococcus pneumoniae [10]): 0.25 µg/mL (≈ 0.599 µM) | MIC (Streptococcus pneumoniae [11]): 0.125 µg/mL (≈ 0.299 µM) | MIC (Haemophilus influenzae [12]): 2 µg/mL (≈ 4.79 µM) | MIC (Haemophilus influenzae [13]): 4 µg/mL (≈ 9.58 µM) | MIC (Staphylococcus aureus [14]): 16 µg/mL (≈ 38.3 µM) | MIC (Enterococcus faecium [15]): 1 µg/mL (≈ 2.4 µM) | FC (Streptococcus pneumoniae [16]): >3 | FC (Streptococcus pneumoniae [17]): >3 | FC (Haemophilus influenzae [18]): >3 | FC (Haemophilus influenzae [19]): >3 | FC (Streptococcus pneumoniae [20]): >3 | FC (Streptococcus pneumoniae [21]): >3 | FC (Haemophilus influenzae [22]): >3 | FC (Haemophilus influenzae [23]): >3 | MIC (Staphylococcus aureus [24]): 1 µg/mL (≈ 2.4 µM) | MIC (Staphylococcus aureus [24]; Staphylococcus aureus, read-out: MIC): 0.5 µg/mL (≈ 1.2 µM) | MIC (Enterococcus faecalis [25]): 0.5 µg/mL (≈ 1.2 µM) | MIC (Enterococcus faecalis [25]; Enterococcus faecalis, read-out: MIC): ≤ 0.25 µg/mL | MIC (Streptococcus pneumoniae [26]): ≤ 0.25 µg/mL | MIC (Streptococcus pneumoniae [27]): ≤ 0.25 µg/mL | MIC (Streptococcus pneumoniae [28]): ≤ 0.25 µg/mL | MIC (Streptococcus pyogenes [29]): 0.25 µg/mL (≈ 0.599 µM) | MIC (Streptococcus pyogenes [29]; [55]): 0.125 µg/mL (≈ 0.299 µM) | MIC (Moraxella catarrhalis): 2 µg/mL (≈ 4.79 µM) | MIC (Moraxella catarrhalis; Moraxella catarrhalis, read-out: MIC): 1 µg/mL (≈ 2.4 µM) | MIC (Staphylococcus aureus [30]): 2 µg/mL (≈ 4.79 µM) | MIC (Staphylococcus aureus [31]): 16 µg/mL (≈ 38.3 µM) | MIC (Staphylococcus aureus [32]): 32 µg/mL (≈ 76.7 µM) | MIC (Staphylococcus aureus [33]): 64 µg/mL (≈ 153 µM) | MIC (Staphylococcus aureus [34]): 16 µg/mL (≈ 38.3 µM) | MIC (Staphylococcus aureus [35]): 8 µg/mL (≈ 19.2 µM) | MIC (Staphylococcus aureus [36]): 4 µg/mL (≈ 9.58 µM) | MIC (Staphylococcus hominis): 4 µg/mL (≈ 9.58 µM) | MIC [37]: 4 µg/mL (≈ 9.58 µM) | MIC (Staphylococcus capitis): 1 µg/mL (≈ 2.4 µM) | MIC (Staphylococcus aureus [38]): 0.5 µg/mL (≈ 1.2 µM) | MIC (Staphylococcus aureus [39]): 1 µg/mL (≈ 2.4 µM) | MIC (Enterococcus faecalis [40]): 1 µg/mL (≈ 2.4 µM) | MIC (Enterococcus faecalis [41]): 2 µg/mL (≈ 4.79 µM) | MIC (Enterococcus faecalis [42]): 1 µg/mL (≈ 2.4 µM) | MIC (Enterococcus faecalis [43]): 2 µg/mL (≈ 4.79 µM) | MIC (Enterococcus faecalis [44]): 4 µg/mL (≈ 9.58 µM) | MIC (Enterococcus faecalis [45]): 4 µg/mL (≈ 9.58 µM) | MIC (Enterococcus faecium [46]): 4 µg/mL (≈ 9.58 µM) | MIC (Enterococcus faecium [47]): 4 µg/mL (≈ 9.58 µM) | MIC (Enterococcus faecium [48]): 4 µg/mL (≈ 9.58 µM) | MIC (Enterococcus faecium [49]): 4 µg/mL (≈ 9.58 µM) | MIC (Enterococcus faecium [50]): 1 µg/mL (≈ 2.4 µM) | MIC (Enterococcus faecium [51]): 2 µg/mL (≈ 4.79 µM)

CC(=O)NC[C@H]1CN(c2ccc(N3CCOCC3)c(F)c2)C(=O)O1 [LINEZOLID]
MIC (Enterococcus faecium [1]): 16 µg/mL (≈ 47.4 µM) | MIC (Enterococcus faecium [2]): 8 µg/mL (≈ 23.7 µM) | MIC (Enterococcus faecium [3]): 64 µg/mL (≈ 190 µM) | MIC (Enterococcus faecium [4]): 8 µg/mL (≈ 23.7 µM) | MIC (Streptococcus pneumoniae [11]): 0.25 µg/mL (≈ 0.741 µM) | MIC (Haemophilus influenzae [12]): 16 µg/mL (≈ 47.4 µM) | MIC (Haemophilus influenzae [13]): 16 µg/mL (≈ 47.4 µM) | MIC (Staphylococcus aureus [14]): 64 µg/mL (≈ 190 µM) | MIC (Enterococcus faecium [15]): 16 µg/mL (≈ 47.4 µM) | MIC (Enterococcus faecium [52]): 8 µg/mL (≈ 23.7 µM) | MIC (Enterococcus faecium [52]; [56]): 4 µg/mL (≈ 11.9 µM) | MIC (Enterococcus faecium [53]): 4 µg/mL (≈ 11.9 µM) | MIC (Enterococcus faecium [53]; [56]): 2 µg/mL (≈ 5.93 µM) | MIC (Streptococcus pyogenes [29]): 2 µg/mL and 4 µg/mL | MIC (Streptococcus pyogenes [29]; [55]): 2 µg/mL (≈ 5.93 µM) | MIC (Streptococcus pyogenes [54]): 2 µg/mL and 4 µg/mL | MIC (Streptococcus pyogenes [54]; [55]): 2 µg/mL (≈ 5.93 µM) | MIC (Legionella pneumophila): 8 µg/mL (≈ 23.7 µM) | MIC (Legionella pneumophila; Legionella pneumophila, read-out: MIC): 4 µg/mL (≈ 11.9 µM) | MIC (Chlamydia trachomatis): 16 µg/mL (≈ 47.4 µM) | MIC (Chlamydia trachomatis; Chlamydia trachomatis, read-out: MIC): 8 µg/mL (≈ 23.7 µM) | MIC (Chlamydia pneumoniae): 1 µg/mL (≈ 2.96 µM) | MIC (Staphylococcus aureus [31]): 64 µg/mL (≈ 190 µM) | MIC (Staphylococcus aureus [32]): 64 µg/mL (≈ 190 µM) | MIC (Staphylococcus aureus [33]): 128 µg/mL (≈ 379 µM) | MIC (Staphylococcus aureus [34]): 64 µg/mL (≈ 190 µM) | MIC (Staphylococcus aureus [35]): 16 µg/mL (≈ 47.4 µM) | MIC (Staphylococcus aureus [36]): 8 µg/mL (≈ 23.7 µM) | MIC (Staphylococcus hominis): 64 µg/mL (≈ 190 µM) | MIC [37]: 32 µg/mL (≈ 94.9 µM) | MIC (Staphylococcus capitis): 16 µg/mL (≈ 47.4 µM) | MIC (Staphylococcus aureus [39]): 8 µg/mL (≈ 23.7 µM) | MIC (Enterococcus faecalis [41]): 32 µg/mL (≈ 94.9 µM) | MIC (Enterococcus faecalis [43]): 32 µg/mL (≈ 94.9 µM) | MIC (Enterococcus faecalis [44]): 32 µg/mL (≈ 94.9 µM) | MIC (Enterococcus faecalis [45]): 64 µg/mL (≈ 190 µM) | MIC (Enterococcus faecium [46]): 32 µg/mL (≈ 94.9 µM) | MIC (Enterococcus faecium [47]): 64 µg/mL (≈ 190 µM) | MIC (Enterococcus faecium [48]): 32 µg/mL (≈ 94.9 µM) | MIC (Enterococcus faecium [49]): 64 µg/mL (≈ 190 µM) | MIC (Enterococcus faecium [50]): 16 µg/mL (≈ 47.4 µM) | MIC (Enterococcus faecium [51]): 32 µg/mL (≈ 94.9 µM)
